From patent publication US12600728B2, “Interleukin-17 inhibitors” (priority 2020, dated 2026) come the findings set out here.

Where two headings read alike, the source gives them in different places.

The target in test [1] is recombinant human IL-17AA (Homo sapiens, UniProt Q16552). The experiment in a line: IL-6 release from NHDF cells, IL-17AA plus TNF-α stimulation. In kind it is cell-based. The note with it: IL-17AA 30 pM + TNF-α 6 pM, 24 hours, IL-6 by ELISA. In a few lines: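 IL-17-specific IL-6 release from NHDF cells adhered overnight; compounds pre-incubated 30 min at room temperature with human IL-17AA plus TNF-α, then 24 h on cells at 37° C. Final DMSO 0.1% or plasma 20%; IL-6 by ELISA (450 nm). TNF-α-only IL-6 subtracted before IC50 fit.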
(An ELISA detects its analyte on a solid surface through an enzyme-linked reagent.)

For test [2], the target named is biotinylated human IL-17A / AF647-labeled human IL-17RA (Homo sapiens, UniProt Q16552). The test can be described thus: Human IL-17A×IL-17RA TR-FRET assay. In kind it is binding. The note with it: 5 nM IL-17A, 30 nM IL-17RA. In short, it runs like this:
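Compounds tested in duplicate at each concentration; neutral controls contain all components with DMSO in place of compound.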
For orientation: In TR-FRET formats the signal depends on donor and acceptor labels being close together.

Setting [3] is: NHDF cells, read-out: IL17AA + TNF IC50 IL-6.
Setting [4] is: TR-FRET, read-out: IL17AA FRET/ IL17Rawt IC50.
Where [5] appears, read: IL17AA + TNF IC50 IL-6, NHDF cells.
The mark [6] stands for this setting: IL17AA FRET/ IL17Rawt IC50, TR-FRET.

Chain of biotinylated human IL-17A / AF647-labeled human IL-17RA (Q16552 24-155): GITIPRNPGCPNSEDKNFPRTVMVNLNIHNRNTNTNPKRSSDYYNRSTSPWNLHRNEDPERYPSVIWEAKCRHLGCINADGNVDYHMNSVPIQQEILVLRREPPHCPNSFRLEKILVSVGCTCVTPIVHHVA
Chain of recombinant human IL-17AA (Q16552 24-155): as above

For the compound `Cc1cc[n+]([O-])c(C)c1-c1ccc(NC(=O)[C@@H](NC(=O)c2ccc3n2CCN(C)C3)C2CCCCCC2)nc1` [Example 149, (S)-6′-(2-cycloheptyl-2-(2-methyl-1,2,3,4-tetrahydropyrrolo[1,2-a]pyrazine-6-carboxamido)acetamido)-2,4-dimethyl-[3,3′-bipyridine] 1-oxide], the IC50 in test [1] (setting [3]) was 59 nM; in test [2] (setting [4]), 118 nM.

`Cc1cc[n+]([O-])c(C)c1-c1ccc(NC(=O)[C@@H](NC(=O)c2ccc3n2CCN(C)C3)C2CCC(F)(F)CC2)cc1` [Example 151, (S)-3-(4-(2-(4,4-difluorocyclohexyl)-2-(2-methyl-1,2,3,4-tetrahydropyrrolo[1,2-a]pyrazine-6-carboxamido)acetamido)phenyl)-2,4-dimethylpyridine 1-oxide]: the IC50 in test [1] (setting [3]) is 57 nM; in test [2] (setting [4]), 260 nM.

Consider `Cc1cc[n+]([O-])c(C)c1-c1ccc(NC(=O)C(NC(=O)c2ccnn2C)C2CCCCC(F)(F)C2)cc1` (stereo not shown) [Example 156, 3-(4-(2-(3,3-difluorocycloheptyl)-2-(1-methyl-1H-pyrazole-5-carboxamido)acetamido)phenyl)-2,4-dimethylpyridine 1-oxide], for which the IC50 in test [1] (setting [3]) worked out at 51.5 nM; in test [2] (setting [4]) it was 110 nM.

Take `Cc1cc[n+]([O-])c(C)c1-c1ccc(NC(=O)[C@@H](NC(=O)c2cn[nH]c2C(C)C)C2CCCCC2)cc1` [Example 157, (S)-3-(4-(2-cyclohexyl-2-(5-isopropyl-1H-pyrazole-4-carboxamido)acetamido)phenyl)-2,4-dimethylpyridine 1-oxide]: the IC50 in test [1] (setting [3]) came to 105 nM; in test [2] (setting [4]), 170 nM.

Regarding `Cc1c(-c2ccc(NC(=O)C(NC(=O)c3ccnn3C(C)C)C3CCCC(F)(F)C3)cc2)c(Cl)cc[n+]1[O-]` (stereo not shown) [Example 158, 4-chloro-3-(4-(2-(3,3-difluorocyclohexyl)-2-(1-isopropyl-1H-pyrazole-5-carboxamido)acetamido)phenyl)-2-methylpyridine 1-oxide], the IC50 was 15.5 nM in test [1] (setting [3]) and less than 6.1 nM in test [2] (setting [4]).

As for `CCn1nccc1C(=O)N[C@H](C(=O)Nc1ccc(-c2c(C)cc[n+]([O-])c2C)cc1)C1CCC(F)(F)CC1` [Example 159, (S)-3-(4-(2-(4,4-difluorocyclohexyl)-2-(1-ethyl-1H-pyrazole-5-carboxamido)acetamido)phenyl)-2,4-dimethylpyridine 1-oxide], the IC50 in test [1] (setting [5]) stood at 31 nM; in test [2] (setting [6]), 100 nM.

As for `Cc1c(-c2ccc(NC(=O)C(NC(=O)c3ccnn3C)C3CCCC(F)(F)C3)cc2)c(Cl)cc[n+]1[O-]` (stereo not shown) [Example 160, 4-chloro-3-(4-(2-(3,3-difluorocyclohexyl)-2-(1-methyl-1H-pyrazole-5-carboxamido)acetamido)phenyl)-2-methylpyridine 1-oxide], the IC50 in test [1] (setting [5]) is 52.3 nM; in test [2] (setting [6]) it was 89.5 nM.

`Cc1cc[n+]([O-])c(C)c1-c1ccc(NC(=O)C(NC(=O)c2ccnn2C(C)C)C2CCCC(F)(F)C2)cc1` (stereo not shown) [Example 161, 3-(4-(2-(3,3-difluorocyclohexyl)-2-(1-isopropyl-1H-pyrazole-5-carboxamido)acetamido)phenyl)-2,4-dimethylpyridine 1-oxide]: the results for the IC50 in test [1] (setting [3]) and in test [2] (setting [4]) were 20.5 nM and 130 nM, respectively.

For `Cc1cc[n+]([O-])c(C)c1-c1ccc(NC(=O)[C@@H](NC(=O)c2conc2C)C2CCC(F)(F)CC2)cc1` [Example 162, (S)-3-(4-(2-(4,4-difluorocyclohexyl)-2-(3-methylisoxazole-4-carboxamido)acetamido)phenyl)-2,4-dimethylpyridine 1-oxide], the IC50 in test [1] (setting [3]) is 44 nM; in test [2] (setting [4]) it was 186 nM.

For `COCc1nocc1C(=O)N[C@H](C(=O)Nc1ccc(-c2c(Cl)cc[n+]([O-])c2C)c(F)c1)C1CCC(F)(F)CC1` [Example 163, 4-chloro-3-(4-((S)-2-(4,4-difluorocyclohexyl)-2-(3-(methoxymethyl)isoxazole-4-carboxamido)acetamido)-2-fluorophenyl)-2-methylpyridine 1-oxide], the IC50 stood at 68 nM in test [1] (setting [3]) and 191 nM in test [2] (setting [4]).

Consider `Cc1c(-c2ccc(NC(=O)[C@@H](NC(=O)c3ccc4n3CCN(C)C4)C3CCC(F)(F)CC3)cc2F)c(Cl)cc[n+]1[O-]` [Example 164, 4-chloro-3-(4-((S)-2-(4,4-difluorocyclohexyl)-2-(2-methyl-1,2,3,4-tetrahydropyrrolo[1,2-a]pyrazine-6-carboxamido)acetamido)-2-fluorophenyl)-2-methylpyridine 1-oxide], for which the IC50 is 45 nM in test [1] (setting [3]) and 199 nM in test [2] (setting [4]).

As for `Cc1cc[n+]([O-])c(C)c1-c1ccc(NC(=O)[C@@H](NC(=O)c2cnn(C)c2C)C2CCCCC2)cc1` [Example 167, (S)-3-(4-(2-cyclohexyl-2-(1,5-dimethyl-1H-pyrazole-4-carboxamido)acetamido)phenyl)-2,4-dimethylpyridine 1-oxide], the IC50 was 210 nM in test [1] (setting [3]) and 155 nM in test [2] (setting [4]).

In the case of `Cc1cc(-c2ccc(NC(=O)[C@@H](NC(=O)c3conc3C)C3CCC(F)(F)CC3)cc2)c(C)[n+]([O-])c1` [Example 169, (S)-3-(4-(2-(4,4-difluorocyclohexyl)-2-(3-methylisoxazole-4-carboxamido)acetamido)phenyl)-2,5-dimethylpyridine 1-oxide], the IC50 in test [1] (setting [3]) was 339 nM; in test [2] (setting [4]), 391 nM.

In the case of `CCn1nccc1C(=O)N[C@H](C(=O)Nc1ccc(-c2cc(Cl)c[n+]([O-])c2C)cc1)C1CCC(F)(F)CC1` [Example 170, (S)-5-chloro-3-(4-(2-(4,4-difluorocyclohexyl)-2-(1-ethyl-1H-pyrazole-5-carboxamido)acetamido)phenyl)-2-methylpyridine 1-oxide], the IC50 is 231 nM in test [1] (setting [5]) and 402 nM in test [2] (setting [6]).

For the compound `Cc1cc(-c2ccc(NC(=O)[C@@H](NC(=O)c3ccnn3C)C3CCC(F)(F)CC3)cc2)c(C)[n+]([O-])c1` [Example 171, (S)-3-(4-(2-(4,4-difluorocyclohexyl)-2-(1-methyl-1H-pyrazole-5-carboxamido)acetamido)phenyl)-2,5-dimethylpyridine 1-oxide], the IC50 in test [1] (setting [5]) is 398 nM; in test [2] (setting [6]), 465 nM.

In the case of `Cc1nocc1C(=O)N[C@H](C(=O)Nc1ccc(-c2cc(Cl)c[n+]([O-])c2C)c(F)c1)C1CCC(F)(F)CC1` [Example 172, (S)-5-chloro-3-(4-(2-(4,4-difluorocyclohexyl)-2-(3-methylisoxazole-4-carboxamido)acetamido)-2-fluorophenyl)-2-methylpyridine 1-oxide], the figures for the IC50 in test [1] (setting [3]) and in test [2] (setting [4]) were 531 nM and 596 nM, respectively.

`Cc1nocc1C(=O)N[C@H](C(=O)Nc1ccc(-c2cc(Cl)c[n+]([O-])c2C)cc1)C1CCC(F)(F)CC1` [Example 173, (S)-5-chloro-3-(4-(2-(4,4-difluorocyclohexyl)-2-(3-methylisoxazole-4-carboxamido)acetamido)phenyl)-2-methylpyridine 1-oxide]: the IC50 in test [1] (setting [3]) is 1680 nM; in test [2] (setting [4]), 659 nM.

Consider `Cc1c(-c2ccc(NC(=O)[C@@H](NC(=O)c3ccnn3C)C3CCC(F)(F)CC3)cc2F)cc(Cl)c[n+]1[O-]` [Example 174, (S)-5-chloro-3-(4-(2-(4,4-difluorocyclohexyl)-2-(1-methyl-1H-pyrazole-5-carboxamido)acetamido)-2-fluorophenyl)-2-methylpyridine 1-oxide], for which the IC50 in test [1] (setting [5]) was found to be 286 nM; in test [2] (setting [6]), 683 nM.

Turning to `Cc1c(-c2ccc(NC(=O)[C@@H](NC(=O)c3ccnn3C)C3CCCCC3)cc2)cc(Cl)c[n+]1[O-]` [Example 175, (S)-5-chloro-3-(4-(2-cyclohexyl-2-(1-methyl-1H-pyrazole-5-carboxamido)acetamido)phenyl)-2-methylpyridine 1-oxide], the IC50 turned out to be 130 nM in test [1] (setting [5]) and 846 nM in test [2] (setting [6]).

For the compound `Cc1cc[n+]([O-])c(C)c1-c1ccc(NC(=O)C(NC(=O)c2ccc3n2CCNC3)C2CCC(C(F)(F)F)CC2)cc1` [Example 178, 2,4-dimethyl-3-(4-((S)-2-(1,2,3,4-tetrahydropyrrolo[1,2-a]pyrazine-6-carboxamido)-2-((1r,4S)-4-(trifluoromethyl)cyclohexyl)acetamido)phenyl)pyridine 1-oxide], the IC50 came to 30 nM in test [1] (setting [3]) and 8.96 nM in test [2] (setting [4]).

Consider `Cc1c(-c2ccc(NC(=O)[C@@H](NC(=O)c3ccc4n3CCNC4)C3CCC(F)(F)CC3)cc2F)c(Cl)cc[n+]1[O-]` [Example 179, 4-chloro-3-(4-((S)-2-(4,4-difluorocyclohexyl)-2-(1,2,3,4-tetrahydropyrrolo[1,2-a]pyrazine-6-carboxamido)acetamido)-2-fluorophenyl)-2-methylpyridine 1-oxide], for which the figures for the IC50 in test [1] (setting [3]) and in test [2] (setting [4]) were 60 nM and 13.9 nM, respectively.

On to `Cc1cc[n+]([O-])c(C)c1-c1ccc(NC(=O)[C@H](Cc2ccccc2Cl)NC(=O)c2ccnn2C)cc1` [Example 180, (S)-3-(4-(3-(2-chlorophenyl)-2-(1-methyl-1H-pyrazole-5-carboxamido)propanamido)phenyl)-2,4-dimethylpyridine 1-oxide], for which the IC50 in test [1] (setting [3]) worked out at 372 nM; in test [2] (setting [4]), 52 nM.

In the case of `Cc1c(-c2ccc(NC(=O)C(NC(=O)c3ccnn3C)C3CCCC(F)C3)cc2)c(Cl)cc[n+]1[O-]` (stereo not shown) [Example 182, 4-chloro-3-(4-(2-(3-fluorocyclohexyl)-2-(1-methyl-1H-pyrazole-5-carboxamido)acetamido)phenyl)-2-methylpyridine 1-oxide], the results for the IC50 in test [1] (setting [3]) and in test [2] (setting [4]) were 44.5 nM and 61.2 nM, respectively.
